Measurements: US20230181632A1 (CHEMAS CO., LTD., priority 2020, published 2023)
Like-named read-outs stand apart in the source and are kept apart here.

What was measured:
[1] = tested on: SARS-CoV-2; format: cell-based
[2] = tested on: Vero E6 cells; format: cell-based, African green monkey; conditions: same RNA samples as transcriptomic assay, normalized to 18s rRNA
[3] = tested on: Vero E6 cells; assay: MTT cytotoxicity assay; format: cell-based, African green monkey; conditions: 48 hours
Description: Vero E6 cells, which are derived from kidney cells extracted from an African green monkey, were seeded at a density of 1×10^4 cells/well into 96-well plates and incubated overnight in DMEM (Dulbecco's modified Eagle's medium) supplemented with glucose, 10% FBS (fetal bovine serum), 1% PS (penicillin+streptomycin), 1% L-glutamine 200 mM, 1% sodium pyruvate 100 mM, and nonessential amino acids before being washed with a PBS buffer.
Cytotoxicity was examined through an MTT assay. The MTT assay is a colorimetric assay for assessing cytotoxicity or viability by taking advantage of the mitochondrial ability to convert the yellow water-soluble substrate MTT tetrazolium into purple insoluble formazan product […] by the action of oxidoreductase enzymes present in mitochondria of living cells.
The cultured Vero E6 cells were seeded into 96-well plates. A 1% (w/v) solution of tetraarsenic hexoxide (As4O6) in distilled water was 1,000- to 20,000-fold diluted (As4O6 25.27 μM-1.26 μM) in DMEM and each of the dilutions was applied to the 96-well plates in duplicate, followed by incubation for 48 hours. […] Incubation at room temperature for 15 minutes made the formazan crystals completely dissolved, followed by reading absorbance at 570 nm (A570 nm) on a microplate.

[4] = tested on: SARS-CoV-2-infected Vero E6 cells; format: cell-based, African green monkey; conditions: 2,000-fold diluted, 36 or 72 hours
[5] = […], 3,000-fold diluted (8.42 μM), 3 days, Vero E6
[6] = […], 4,000-fold diluted (6.32 μM), 3 days, Vero E6

O1[As]2O[As]3O[As]1O[As](O2)O3 [tetraarsenic hexoxide]
% Inhibition of CPE [1]: 100% | % Inhibition of CPE (cytopathic effect) [1]: 100% | % Inhibition of CPE [1, 5]: 87.5% (7/8well) | % Inhibition of CPE (cytopathic effect) [1, 5]: 37.5% (3/8well) | % Inhibition of CPE [1, 6]: 87.5% (7/8well) | % Inhibition of CPE (cytopathic effect) [1, 6]: 37.5% (3/8well) | inhibition against viral growth ([1]; […], across tested dilutions): 87-100% | expression of the genes BAG3, CRYAB, HSPH1, HMOX1 and ZFAND2A (RT-PCR) [2]: upregulated expressions | Cytotoxicity (MTT) ([3]; 1% (w/v) solution, 2,000-fold or greater dilutions): the cells survived and did not undergo cell death | Cytotoxicity (MTT) ([3]; 1% (w/v) solution, up to 1,000-fold dilution (25.27 μM)): exhibited cytotoxicity leading to cell death | expression of the cytokine genes CSF1, PDGFA, PDGFB, CXCL1, CXCL2, CXCL3, CXCL8, CXCL10, CCL2, and CCL20 (transcriptome) [4]: remarkably downregulated | expression of the gene ZFAND2A (transcriptome) [4]: increased | expression of the genes BAGS, HSPA1B, CRYAB, HMOX1, and HSPH1 (transcriptome) [4]: upregulated
